≈ marks a conversion by molar mass, not a printed value. Calls of active or inactive are those of the source. The rule behind the calls is not given here.
Assays:
Saccharomyces cerevisiae [1] = assay: Antifungal activity against Saccharomyces cerevisiae MTCC 170 assessed as growth inhibition at 4 mg/mL after 24 hr by agar well diffusion method; type: functional; conditions: for zone of inhibition at 4000 µg/mL: MTCC 170, 24 h, read-out: DIZ
Candida albicans [2] = assay: Antifungal activity against Candida albicans MTCC 227 assessed as growth inhibition at 4 mg/mL after 24 hr by agar well diffusion method; type: functional; conditions: for zone of inhibition at 4000 µg/mL: MTCC 227, 24 h, read-out: DIZ
Staphylococcus aureus [3] = assay: Antibacterial activity against Staphylococcus aureus MTCC 96 assessed as growth inhibition at 4 mg/mL after 24 hr by agar well diffusion method; type: functional; conditions: for zone of inhibition at 4000 µg/mL: MTCC 96, 24 h, read-out: DIZ
Escherichia coli = assay: Antibacterial activity against Escherichia coli MTCC 1652 assessed as growth inhibition at 4 mg/mL after 24 hr by agar well diffusion method; type: functional, organism-based
Staphylococcus aureus [4] = assay: Antibacterial activity against Staphylococcus aureus MTCC 96 assessed as growth inhibition after 24 hr by agar well diffusion method; type: functional; conditions: MTCC 96, 24 h
Bacillus subtilis [5] = assay: Antibacterial activity against Bacillus subtilis MTCC 121 assessed as growth inhibition after 24 hr by agar well diffusion method; type: functional; conditions: MTCC 121, 24 h
Bacillus subtilis [6] = assay: Antibacterial activity against Bacillus subtilis MTCC 121 assessed as growth inhibition at 4 mg/mL after 24 hr by agar well diffusion method; type: functional; conditions: for zone of inhibition at 4000 µg/mL: MTCC 121, 24 h, read-out: DIZ
Candida albicans [7] = assay: Antifungal activity against Candida albicans MTCC 227 assessed as growth inhibition after 24 hr by agar well diffusion method; type: functional; conditions: MTCC 227, 24 h
Saccharomyces cerevisiae [8] = assay: Antifungal activity against Saccharomyces cerevisiae MTCC 170 assessed as growth inhibition after 24 hr by agar well diffusion method; type: functional; conditions: MTCC 170, 24 h

SMILES	growth inhibition (GI) (Saccharomyces cerevisiae [1])	growth inhibition (GI) (Candida albicans [2])	zone of inhibition at 4000 µg/mL (Staphylococcus aureus [3]) [mm]	growth inhibition (GI) (Escherichia coli)	MIC (Staphylococcus aureus [4]) [µg/mL]	MIC (Bacillus subtilis [5]) [µg/mL]	zone of inhibition at 4000 µg/mL (Bacillus subtilis [6]) [mm]	zone of inhibition at 4000 µg/mL (Saccharomyces cerevisiae [1]) [mm]	MIC (Candida albicans [7]) [µg/mL]	zone of inhibition at 4000 µg/mL (Candida albicans [2]) [mm]	MIC (Saccharomyces cerevisiae [8]) [µg/mL]	growth inhibition (GI) (Staphylococcus aureus [3])	growth inhibition (GI) (Bacillus subtilis [6])
Cc1ccc(-c2nn(-c3ccc(S(N)(=O)=O)cc3)c3nc(-c4ccc(Cl)cc4)cc(C(F)(F)F)c23)cc1	inactive	inactive	15.6	inactive	128 (≈ 236 µM)	128 (≈ 236 µM)	16.3	–	–	–	–	–	–
Cc1cc(C(F)(F)F)c2c(-c3ccc(Cl)cc3)nn(-c3ccc(S(N)(=O)=O)cc3)c2n1	inactive	inactive	18.6	inactive	64 (≈ 137 µM)	128 (≈ 274 µM)	17.6	–	–	–	–	–	–
NS(=O)(=O)c1ccc(-n2nc(-c3ccccc3)c3c(C(F)(F)F)cc(-c4ccc(F)cc4)nc32)cc1	–	–	17.6	inactive	128 (≈ 250 µM)	64 (≈ 125 µM)	19.6	15.3	128 (≈ 250 µM)	14.6	64 (≈ 125 µM)	–	–
Cc1ccc(-c2cc(C(F)(F)F)c3c(-c4ccccc4)nn(-c4ccc(S(N)(=O)=O)cc4)c3n2)cc1	–	–	21.3	inactive	32 (≈ 62.9 µM)	64 (≈ 126 µM)	20.3	15.6	64 (≈ 126 µM)	16.3	64 (≈ 126 µM)	–	–
NS(=O)(=O)c1ccc(-n2nc(-c3ccccc3)c3c(C(F)(F)F)cc(C(F)(F)F)nc32)cc1	–	–	22.6	inactive	32 (≈ 65.8 µM)	32 (≈ 65.8 µM)	21.6	14.6	64 (≈ 132 µM)	15.6	128 (≈ 263 µM)	–	–
Cc1ccc(-c2nn(-c3ccc(S(N)(=O)=O)cc3)c3nc(-c4ccccc4)cc(C(F)(F)F)c23)cc1	inactive	inactive	18.3	inactive	64 (≈ 126 µM)	128 (≈ 252 µM)	17.6	–	–	–	–	–	–
Cc1ccc(-c2nn(-c3ccc(S(N)(=O)=O)cc3)c3nc(C(F)(F)F)cc(C(F)(F)F)c23)cc1	inactive	inactive	15.6	inactive	128 (≈ 256 µM)	128 (≈ 256 µM)	16.6	–	–	–	–	–	–
C[C@@H]1[C@H](O)[C@@H](C)/C=C/C=C/C=C/C=C/C=C/C=C/C=C/[C@H](O[C@@H]2O[C@H](C)[C@@H](O)[C@H](N)[C@@H]2O)C[C@@H]2O[C@](O)(C[C@@H](O)C[C@@H](O)[C@H](O)CC[C@@H](O)C[C@@H](O)CC(=O)O[C@H]1C)C[C@H](O)[C@H]2C(=O)O [AMPHOTERICIN B]	–	–	–	–	–	–	–	19.3	20 (≈ 21.6 µM)	16.6	20 (≈ 21.6 µM)	–	–
Cc1ccc(-c2cc(C(F)(F)F)c3c(-c4ccc(Cl)cc4)nn(-c4ccc(S(N)(=O)=O)cc4)c3n2)cc1	inactive	inactive	–	inactive	–	–	–	–	–	–	–	inactive	inactive
NS(=O)(=O)c1ccc(-n2nc(-c3ccc(Cl)cc3)c3c(C(F)(F)F)cc(-c4ccc(F)cc4)nc32)cc1	inactive	inactive	–	inactive	–	–	–	–	–	–	–	inactive	inactive
NS(=O)(=O)c1ccc(-n2nc(-c3ccc(Cl)cc3)c3c(C(F)(F)F)cc(-c4ccc(Cl)cc4)nc32)cc1	inactive	inactive	–	inactive	–	–	–	–	–	–	–	inactive	inactive
Cc1ccc(-c2cc(C(F)(F)F)c3c(-c4ccc(C)cc4)nn(-c4ccc(S(N)(=O)=O)cc4)c3n2)cc1	inactive	inactive	15.3	inactive	128 (≈ 245 µM)	128 (≈ 245 µM)	16.3	–	–	–	–	–	–
NS(=O)(=O)c1ccc(-n2nc(-c3ccc(Cl)cc3)c3c(C(F)(F)F)cc(-c4ccccc4)nc32)cc1	inactive	inactive	–	inactive	–	–	–	–	–	–	–	inactive	inactive
